# Laboratory results taken from US6251898A, “Medical use of fluorenone derivatives for treating and preventing brain and spinal injury” (Questcor Pharmaceuticals, Inc., priority 1999, dated 2001).
# System: UC11-MG human astrocytoma cells
# Assay: D-aspartate (excitotoxin) release by hypo-osmotically stressed astrocytoma cells
# Format: cell-based
# Details: for IC50: Homo sapiens, UC11MG, hypo-osmotic stress, about 145 mOsm, AUC-based, read-out: IC50 value (suppression of excitotoxin / D-aspartate release by stressed astrocyte cells); for Comparative potency: relative to L-644,711 (100% = benchmark); for Fold potency versus L-644,711: inhibition of aspartate release, compared to L-644,711
# Description: The in vitro tests described in this example used UC11-MG human astrocytoma cells, obtained from the University of Cincinnati, and described in Liwnicz et al 1986 and Lomneth et al 1989. Cell culture reagents (including RPMI 1640, fetal bovine serum, trypsin, and gentamicin) were obtained from Gibco (Gaithersburg, Md.). Radiolabelled D-[2,3-^3 H]aspartate was obtained from Amersham Life Sciences (Buckinghamshire, England). ScintiVerse II scintillation fluid was obtained from Fisher Scientific (Pittsburgh, Pa.). All other chemicals were obtained from Sigma Chemical Co. (St. Louis, Mo.). Osmolarities of solutions were measured using the Advance DigiMatic Osmometer Model 3D II (Advanced Instruments Inc., Mass.).
# The UC11-MG astrocytoma cells were cultured in 75 ml vented flasks at 37° C. inside a humidified incubator in 5% CO2 /95% air. The cells were grown in RPMI Medium 1640 supplemented with 10% fetal bovine serum and […] gentamicin. At approximately 90% confluence, the cells were detached and suspended using a 0.0625% trypsin solution in Buffer A (137 mM NaCl, 5.37 mM KCl, 5.55 mM glucose, 4.17 mM NaHCO3, and 0.54 mM EDTA disodium salt, pH 7.4). The cells were then plated onto 6-well tissue culture plates at a seeding ratio of 4 plates per flask and 4 ml of cell-media suspension per well. The plated cells were used in experiments the next day at approximately 90% confluence. Plates that appeared to be more than 95% confluent were not used, because higher levels of confluence led to uncontrollable differentials in exposure of the cells to culture media and labelled aspartate. All tests were performed in triplicate. All media collections were done at 5 minute intervals, using pipettes, and were followed by promptly loading fresh buffer into each well before any drying occurred. All buffer samples collected in this manner were loaded into scintillation vials, mixed with 5 ml scintillation fluid, and counted for 1 minute in a scintillation counter (Beckman LS8000, Fullerton, Calif.).
# Prior to D-aspartate exposure, the wells were washed three times under sterile conditions with 3 ml of 37° C. Buffer B (122 mM NaCl, 3.3 mM KCl, 1.2 mM CaCl2, 0.4 mM MgSO4, 1.2 mM KH2 PO4, 25 mM Hepes, 10 mM glucose, pH 7.4).
# The cells were then loaded with 0.5 μCi/ml of D-aspartate, and incubated at 37° C. for 30 min. Cells were then washed four times with Buffer B, and the last washing fluid was left on the cells. The plates were then placed on an orbital shaker and maintained at 37° C.
# Baseline aspartate release levels (prior to drug treatment) were determined by incubating the cells with normal Buffer B (285 mOsm) for 15 minutes, while buffer was collected every 5 minutes.
# After the buffer was collected from a well at the 15 minute mark, the next set of normal Buffer B added to that well contained a test compound at a known concentration; each compound was tested over a range of concentrations. Cells were then incubated for two 5 minute intervals with solutions of test compounds in normal Buffer B. In some tests which used buffers containing relatively high concentrations of a test drug with limited solubility in water, DMSO was added to the mixture to increase the solubility of the compound in water.
# Beginning at the 25-minute mark, the cells were stimulated to begin releasing aspartate by loading a well with hypo-osmotic buffer, prepared by diluting Buffer B with an equal volume of distilled and deionized H2 O, resulting in an osmolarity of about 145 mOsm. This hypo-osmoticsolution caused the cells to begin taking in excess water, to try to reestablish the normal osmotic gradients that exist across the cell membranes. The water-induced swelling and stress then began to induce release of aspartate by the cells, and the amount of aspartate released by the swollen astrocyte cells was measured by removing the buffer every 5 minutes and testing it in a scintillation counter.
SMILES,IC50,Comparative potency,"Fold potency versus L-644,711"
"CCC[C@]12CCC(=O)C=C1c1c(cc(OC(C)=O)c(Cl)c1Cl)C2 [GERI-Est1, R-(+)-7-acetoxy-5,6-dichloro-9a-propyl-2,3,9,9a-tetrahydro-1H-fluoren-3-one]",13.9 µM,"1,896%",
"CCC[C@]12CCC(=O)C=C1c1c(cc(OCc3ccccc3C(=O)O)c(Cl)c1Cl)C2 [GERI-E3, Sodium R(+)-2-[(5,6-dichloro-2 3,9,9a-tetrahydro-3-oxo-9a-propyl-1H-fluoren-7-yl)oxymethyl]benzoate]",7.9 µM,"3,335%",
"CCC[C@]12CCC(=O)C=C1c1c(cc(OCC(=O)NCC(OC)OC)c(Cl)c1Cl)C2 [GERI-AmE1, R(+)-N-[2,2-(dimethoxy)-ethyl][(5,6-dichloro-2,3,9,9a-tetrahydro-3-oxo-9a-propyl-1H-fluoren-7-yl)oxy]acetamide]",19.4 µM,"1,358%",
"CCC[C@]12CCC(=O)C=C1c1c(cc(OCC(=O)O)c(Cl)c1Cl)C2 [L-644,711, R(+)-[(5,6-dichloro-2,3,9,9a-tetrahydro-3-oxo-9a-propyl-1H-fluoren-7-yl)oxy]acetic acid, reference compound]",264 µM,,
"CCC[C@]12CCC(=O)C=C1c1c(cc(OCc3cccc(C(=O)O)c3)c(Cl)c1Cl)C2 [GERI-E4, Sodium R(+)-3-[(5,6-dichloro-2,3 9,9a-tetrahydro-3-oxo-9a-propyl-1H-fluoren-7-yl)oxymethyl]benzoate]",7.8 µM,"3,378%",~34 fold
"CCC[C@]12CCC(=O)C=C1c1c(cc(OCC(=O)NCc3ccccc3)c(Cl)c1Cl)C2 [GERI-AmE3, R(+)-N-benzyl-[(5,6-dichloro-2,3,9,9a-tetrahydro-3-oxo-9a-propyl-1H-fluoren-7-yl)oxy]acetamide]",31.9 µM,826%,
"CCC[C@]12CCC(=O)C=C1c1c(cc(OCC(CO)(CO)CO)c(Cl)c1Cl)C2 [GERI-E1, R-(+)-5,6-dichloro-7-[3-hydroxy-2,2-bis-(hydroxymethyl)propyloxy]-9a-propyl-2,3,9,9a-tetrahydro-1H-fluoren-3-one]",29.5 µM,893%,
"CCC[C@]12CCC(=O)C=C1c1c(cc(OCc3ccc(C(=O)O)cc3)c(Cl)c1Cl)C2 [GERI-E5, Sodium R(+)-4-[(5,6-dichloro-2,3,9,9a-tetrahydro-3-oxo-9a-propyl-1H-fluoren-7-yl)oxymethyl]benzoate]",8 µM,"3,294%",
"CCC[C@]12CCC(=O)C=C1c1c(cc(OCC(=O)NCCCn3ccnc3)c(Cl)c1Cl)C2 [GERI-AmE5, R(+)-N-[3-(1-imidazolyl)-propyl][(5,6-dichloro-2,3,9,9a-tetrahydro-3-oxo-9a-propyl-1H-fluoren-7-yl)oxy]acetamide]",39.8 µM,662%,~7 fold
"CCC[C@]12CCC(=O)C=C1c1c(cc(OCC(=O)NCc3ccccn3)c(Cl)c1Cl)C2 [GERI-AmE4, R(+)-N-[(2-pyridylmethyl][5,6-dichloro-2,3,9,9a-tetrahydro-3-oxo-9a-propyl-1H-fluoren-7-yl)oxy]acetamide]",11.6 µM,"2,272%",
"CCC[C@]12CCC(=O)C=C1c1c(cc(OCOC(C)=O)c(Cl)c1Cl)C2 [GERI-E13, R-(+)-7-(acetoxymethoxy)-5,6-dichloro-9a-propyl-2,3,9,9a-tetrahydro-1H-fluoren-3-one]",19.2 µM,"1,372%",
